Results: patent US6525001B1, “Substituted pyrimidine and pyridine herbicides” (Mid-American Commercialization Corporation, priority 1997, dated 2003)

Key:
Format in all cases: in vivo
[1] = test system: smallflower flatsedge (Cyperus difformis); assay: Test B flood test
Procedure, shortened: (§1)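 Read-out is a visual response score from 0 (no effect) to 10 (complete control), assigned by comparison with untreated controls. Treatment was applied at the 2-leaf stage, and plants stayed in the greenhouse for twelve to sixteen days before scoring.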

[2] = test system: duck salad (Heteranthera limosa); assay: Test B flood test
Procedure, shortened: as §1

[3] = test system: rice (Oryza sativa); assay: Test B flood test
Procedure, shortened: as §1

[4] = test system: bamyardgrass (Echinochloa crus-galli); assay: Test B flood test
Procedure, shortened: as §1

[5] = test system: corn (Zea mays); assay: Test B pre-/postemergence; design: key: 0 is no effect; 10 is complete control; conditions: for Corn plant response rating: Preemergence
Source text: (§2) Seeds of bedstraw (Galium aparine), blackgrass (Alopecurus myosuroides), broadleaf signalgrass (Brachiaria decumbens), cocklebur (Xanthium strumarium), corn (Zea mays), crabgrass (Digitaria sanguinalis), giant foxtail (Setaria faberii), lambsquarters (Chenopodium album), momingglory (Ipomoea hederacea), pigweed (Amaranthus retroflexus), rape (Brassica napus), soybean (Glycine max), sugar beet (Beta vulgaris), velvetleaf (Abutilon theophrasti), wheat (Triticum aestivum), wild oat (Avena fatua) and purple nutsedge (Cyperus rotundus) tubers were planted and treated preemergence with test chemicals formulated in a non-phytotoxic solvent mixture which included a surfactant.
(§3) At the same time, these crop and weed species were also treated with postemergence applications of test chemicals formulated in the same manner. Plants ranged in height from 2 to 18 cm (1- to 4-leaf stage) for postemergence treatments. Plant species in the flood test consisted of rice (Oryza sativa), smallflower flatsedge (Cyperus difformis), duck salad (Heteranthera limosa) and bamyardgrass (Echinochloa crus-galli) grown to the 2-leaf stage for testing. Treated plants and controls were maintained in a greenhouse for twelve to sixteen days, after which all species were compared to controls and visually evaluated. Plant response ratings, summarized in Table B, are based on a scale of 0 to 10 where 0 is no effect and 10 is complete control. A dash (−) response means no test result.

[6] = test system: rape (Brassica napus); assay: Test B pre-/postemergence; design: key: 0 is no effect; 10 is complete control
Source text: as §2, §3

[7] = test system: blackgrass (Alopecurus myosuroides); assay: Test B pre-/postemergence; design: key: 0 is no effect; 10 is complete control; conditions: for Blackgrass plant response rating: Preemergence
Source text: as §2, §3

[8] = test system: broadleaf signalgrass (Brachiaria decumbens); assay: Test B pre-/postemergence; design: key: 0 is no effect; 10 is complete control; conditions: for B. signalgrass plant response rating: Preemergence
Source text: as §2, §3

[9] = test system: wheat (Triticum aestivum); assay: Test B pre-/postemergence; design: key: 0 is no effect; 10 is complete control
Source text: as §2, §3

[10] = test system: wild oat (Avena fatua); assay: Test B pre-/postemergence; design: key: 0 is no effect; 10 is complete control
Source text: as §2, §3

[11] = test system: velvetleaf (Abutilon theophrasti); assay: Test B pre-/postemergence; design: key: 0 is no effect; 10 is complete control
Source text: as §2, §3

[12] = test system: soybean (Glycine max); assay: Test B pre-/postemergence; design: key: 0 is no effect; 10 is complete control
Source text: as §2, §3

[13] = test system: bedstraw (Galium aparine); assay: Test B pre-/postemergence; design: key: 0 is no effect; 10 is complete control; conditions: for Bedstraw plant response rating: Preemergence
Source text: as §2, §3

[14] = test system: cocklebur (Xanthium strumarium); assay: Test B pre-/postemergence; design: key: 0 is no effect; 10 is complete control; conditions: for Plant response rating, Cocklebur: Postemergence; for Cocklebur plant response rating: Preemergence
Source text: as §2, §3

[15] = test system: momingglory (Ipomoea hederacea); assay: Test B pre-/postemergence; design: key: 0 is no effect; 10 is complete control
Source text: as §2, §3

[16] = test system: crabgrass (Digitaria sanguinalis); assay: Test B pre-/postemergence; design: key: 0 is no effect; 10 is complete control; conditions: for Crabgrass plant response rating: Preemergence
Source text: as §2, §3

[17] = test system: pigweed (Amaranthus retroflexus); assay: Test B pre-/postemergence; design: key: 0 is no effect; 10 is complete control
Source text: as §2, §3

[18] = test system: giant foxtail (Setaria faberii); assay: Test B pre-/postemergence; design: key: 0 is no effect; 10 is complete control
Source text: as §2, §3

[19] = test system: purple nutsedge (Cyperus rotundus); assay: Test B pre-/postemergence; design: key: 0 is no effect; 10 is complete control
Source text: as §2, §3

[20] = test system: sugar beet (Beta vulgaris); assay: Test B pre-/postemergence; design: key: 0 is no effect; 10 is complete control
Source text: as §2, §3

[21] = Rate 62 g/ha, Postemergence (flood test)
[22] = Rate 125 g/ha, Postemergence section (flood test species)
[23] = Rate 250 g/ha, Postemergence (flood test species)
[24] = Rate 125 g/ha, Postemergence, flood test
[25] = Rate 250 g/ha, Postemergence (so in the source)

`Cc1cnc(-c2ccc(Cl)cc2)nc1Cc1cccc(C(F)(F)F)c1` [Compound 28] was tested, and the “Plant response rating, S. Flatsedge” value [1, 21] was 5, the “S. Flatsedge plant response rating” value [1, 22] was 8 and the “Plant response rating, S. Flatsedge” value [1, 23] was 8. For the same compound, the “Plant response rating, Ducksalad” value [2, 21] was 2, the “Plant response rating, Ducksalad” value [2, 24] was 3 and the “Plant response rating, Ducksalad” value [2, 23] was 6. For the same compound, the “Plant response rating, Rice” value [3, 21] was 2, the “Rice plant response rating” value [3, 22] was 2 and the “Plant response rating, Rice” value [3, 23] was 3. The “Plant response rating, Barnyardgrass” value [4, 21] was 3, the “Plant response rating, Barnyardgrass” value [4, 24] was 4 and the “Plant response rating, Barnyardgrass” value [4, 23] was 5. For the same compound, the “Plant response rating, Corn” value ([5]; Rate 62 g/ha, Postemergence) was 2, the “Corn plant response rating” value ([5]; Rate 62 g/ha) was 0 and the “Plant response rating, Corn” value ([5]; Rate 125 g/ha, Postemergence) was 3. For the same compound, the “Corn plant response rating” value ([5]; Rate 125 g/ha) was 0, the “Plant response rating, Corn” value ([5]; Rate 250 g/ha, Postemergence) was 4 and the “Plant response rating, Corn” value [5, 25] was 1. For the same compound, the “Plant response rating, Rape” value ([6]; Rate 62 g/ha, Postemergence) was 9, the “Rape plant response rating” value ([6]; Rate 62 g/ha, Preemergence) was 1 and the “Rape plant response rating” value ([6]; Rate 125 g/ha, Postemergence) was 9. For the same compound, the “Rape plant response rating” value ([6]; Rate 125 g/ha, Preemergence) was 2, the “Plant response rating, Rape” value ([6]; Rate 250 g/ha, Postemergence) was 10 and the “Plant response rating, Rape” value [6, 25] was 4. The “Plant response rating, Blackgrass” value ([7]; Rate 62 g/ha, Postemergence) was 4, the “Blackgrass plant response rating” value ([7]; Rate 62 g/ha) was 2 and the “Plant response rating, Blackgrass” value ([7]; Rate 125 g/ha, Postemergence) was 5. For the same compound, the “Blackgrass plant response rating” value ([7]; Rate 125 g/ha) was 5, the “Plant response rating, Blackgrass” value ([7]; Rate 250 g/ha, Postemergence) was 8 and the “Plant response rating, Blackgrass” value [7, 25] was 6. The “Plant response rating, B. signalgrass” value ([8]; Rate 62 g/ha, Postemergence) was 4, the “B. signalgrass plant response rating” value ([8]; Rate 62 g/ha) was 2 and the “Plant response rating, B. signalgrass” value ([8]; Rate 125 g/ha, Postemergence) was 5. For the same compound, the “B. signalgrass plant response rating” value ([8]; Rate 125 g/ha) was 5, the “Plant response rating, B. signalgrass” value ([8]; Rate 250 g/ha, Postemergence) was 9 and the “Plant response rating, B. signalgrass” value ([8]; Rate 250 g/ha, Postemergence as printed in head r139 (second section for compounds 26-50)) was 9. For the same compound, the “Wheat plant response rating” value ([9]; Rate 62 g/ha, Postemergence) was 3, the “Wheat plant response rating” value ([9]; Rate 62 g/ha, Preemergence) was 0 and the “Wheat plant response rating” value ([9]; Rate 125 g/ha, Postemergence) was 4. The “Plant response rating, Wheat” value ([9]; Rate 125 g/ha, Preemergence) was 0, the “Plant response rating, Wheat” value ([9]; Rate 250 g/ha, Postemergence) was 5 and the “Plant response rating, Wheat” value [9, 25] was 0. For the same compound, the “Wild oats plant response rating” value ([10]; Rate 62 g/ha, Postemergence) was 4, the “Wild oats plant response rating” value ([10]; Rate 62 g/ha, Preemergence) was 3 and the “Wild oats plant response rating” value ([10]; Rate 125 g/ha, Postemergence) was 5. The “Plant response rating, Wild oats” value ([10]; Rate 125 g/ha, Preemergence) was 3, the “Plant response rating, Wild oats” value ([10]; Rate 250 g/ha, Postemergence) was 6 and the “Plant response rating, Wild oats” value [10, 25] was 4. For the same compound, the “Plant response rating, Velvetleaf” value ([11]; Rate 62 g/ha, Postemergence) was 3, the “Velvetleaf plant response rating” value ([11]; Rate 62 g/ha, Preemergence) was 1 and the “Velvetleaf plant response rating” value ([11]; Rate 125 g/ha, Postemergence) was 4. The “Plant response rating, Velvetleaf” value ([11]; Rate 125 g/ha, Preemergence) was 1, the “Plant response rating, Velvetleaf” value ([11]; Rate 250 g/ha, Postemergence) was 8 and the “Plant response rating, Velvetleaf” value [11, 25] was 2. For the same compound, the “Plant response rating, Soybean” value ([12]; Rate 62 g/ha, Postemergence) was 4, the “Soybean plant response rating” value ([12]; Rate 62 g/ha, Preemergence) was 0 and the “Soybean plant response rating” value ([12]; Rate 125 g/ha, Postemergence) was 7. The “Plant response rating, Soybean” value ([12]; Rate 125 g/ha, Preemergence) was 0, the “Plant response rating, Soybean” value ([12]; Rate 250 g/ha, Postemergence) was 7 and the “Plant response rating, Soybean” value [12, 25] was 1. The “Plant response rating, Bedstraw” value ([13]; Rate 62 g/ha, Postemergence) was 2, the “Bedstraw plant response rating” value ([13]; Rate 62 g/ha) was 2 and the “Plant response rating, Bedstraw” value ([13]; Rate 125 g/ha, Postemergence) was 8. The “Bedstraw plant response rating” value ([13]; Rate 125 g/ha) was 4, the “Plant response rating, Bedstraw” value ([13]; Rate 250 g/ha, Postemergence) was 8 and the “Plant response rating, Bedstraw” value [13, 25] was 8. The “Plant response rating, Cocklebur” value ([14]; Rate 62 g/ha) was 7, the “Cocklebur plant response rating” value ([14]; Rate 62 g/ha) was 0 and the “Plant response rating, Cocklebur” value ([14]; Rate 125 g/ha) was 8. For the same compound, the “Cocklebur plant response rating” value ([14]; Rate 125 g/ha) was 0, the “Plant response rating, Cocklebur” value ([14]; Rate 250 g/ha) was 8 and the “Plant response rating, Morningglory” value ([15]; Rate 62 g/ha, Postemergence) was 3. The “Morningglory plant response rating” value ([15]; Rate 62 g/ha, Preemergence) was 2, the “Morningglory plant response rating” value ([15]; Rate 125 g/ha, Postemergence) was 3 and the “Morningglory plant response rating” value ([15]; Rate 125 g/ha, Preemergence) was 2. For the same compound, the “Plant response rating, Morningglory” value ([15]; Rate 250 g/ha, Postemergence) was 3, the “Plant response rating, Morningglory” value [15, 25] was 3 and the “Plant response rating, Crabgrass” value ([16]; Rate 62 g/ha, Postemergence) was 3. The “Crabgrass plant response rating” value ([16]; Rate 62 g/ha) was 2, the “Plant response rating, Crabgrass” value ([16]; Rate 125 g/ha, Postemergence) was 9 and the “Crabgrass plant response rating” value ([16]; Rate 125 g/ha) was 4. The “Plant response rating, Crabgrass” value ([16]; Rate 250 g/ha, Postemergence) was 10, the “Plant response rating, Crabgrass” value [16, 25] was 10 and the “Plant response rating, Redroot pigweed” value ([17]; Rate 62 g/ha, Postemergence) was 8. The “Redroot pigweed plant response rating” value ([17]; Rate 62 g/ha, Preemergence) was 5, the “Redroot pigweed plant response rating” value ([17]; Rate 125 g/ha, Postemergence) was 9 and the “Redroot pigweed plant response rating” value ([17]; Rate 125 g/ha, Preemergence) was 6. The “Plant response rating, Redroot pigweed” value ([17]; Rate 250 g/ha, Postemergence) was 10, the “Plant response rating, Redroot pigweed” value [17, 25] was 7 and the “Plant response rating, Giant foxtail” value ([18]; Rate 62 g/ha, Postemergence) was 3. The “Giant foxtail plant response rating” value ([18]; Rate 62 g/ha, Preemergence) was 4, the “Giant foxtail plant response rating” value ([18]; Rate 125 g/ha, Postemergence) was 4 and the “Giant foxtail plant response rating” value ([18]; Rate 125 g/ha, Preemergence) was 9. For the same compound, the “Plant response rating, Giant foxtail” value ([18]; Rate 250 g/ha, Postemergence) was 9, the “Plant response rating, Giant foxtail” value [18, 25] was 10 and the “Plant response rating, Nutsedge” value ([19]; Rate 62 g/ha, Postemergence) was 0. For the same compound, the “Nutsedge plant response rating” value ([19]; Rate 62 g/ha, Preemergence) was 0, the “Nutsedge plant response rating” value ([19]; Rate 125 g/ha, Postemergence) was 3 and the “Nutsedge plant response rating” value ([19]; Rate 125 g/ha, Preemergence) was 0. The “Plant response rating, Nutsedge” value [19, 25] was 0, the “Plant response rating, Sugarbeets” value ([20]; Rate 62 g/ha, Postemergence) was 9 and the “Sugarbeets plant response rating” value ([20]; Rate 62 g/ha, Preemergence) was 0. The “Sugarbeets plant response rating” value ([20]; Rate 125 g/ha, Postemergence) was 9, the “Plant response rating, Sugarbeets” value ([20]; Rate 125 g/ha, Preemergence) was 2 and the “Plant response rating, Sugarbeets” value ([20]; Rate 250 g/ha, Postemergence) was 10. For the same compound, the “Plant response rating, Sugarbeets” value [20, 25] was 3.
